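Growth conditions: 96-well plates. Treatment: test compound, 48 hours, 5 concentrations. Analysis: linear interpolation between bracketing concentrations; unreached endpoints set to highest concentration. Definition used: TGI = concentration required for complete inhibition of growth.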
Tests used:
Experiment in all cases: NCI anticancer screen, dose series, 48 h
MOLT-4 leukemia = system: MOLT-4 leukemia
CAKI-1 renal = system: CAKI-1 renal
CCRF-CEM leukemia = system: CCRF-CEM leukemia
NCI-H23 lung = system: NCI-H23 lung
SK-MEL-5 melanoma = system: SK-MEL-5 melanoma
HOP-92 NSCLC = system: HOP-92 NSCLC
NCI-H226 lung = system: NCI-H226 lung
DU-145 prostate = system: DU-145 prostate
OVCAR-3 ovarian = system: OVCAR-3 ovarian
MDA-MB-435 = system: MDA-MB-435

Compound: CCOC(=O)C1=CNC(C(=O)OCC)C1c1cccn1-c1ccc(Cl)cc1[N+](=O)[O-] (stereo not given)
- TGI (MOLT-4 leukemia): 59.5 µM
- TGI (CAKI-1 renal): 58.6 µM
- TGI (CCRF-CEM leukemia): 66.1 µM
- TGI (NCI-H23 lung): > 100 µM
- TGI (SK-MEL-5 melanoma): 30.3 µM
- TGI (HOP-92 NSCLC): 51.7 µM
- TGI (NCI-H226 lung): 50 µM
- TGI (DU-145 prostate): > 100 µM
- TGI (OVCAR-3 ovarian): 30.3 µM
- TGI (MDA-MB-435): 58.7 µM

Compound: CCOC(=O)c1ccc(Nc2c3c(nc4ccccc24)CCCC3)cc1
- TGI (MOLT-4 leukemia): > 100 µM
- TGI (CAKI-1 renal): > 100 µM
- TGI (CCRF-CEM leukemia): > 100 µM
- TGI (NCI-H23 lung): > 100 µM
- TGI (SK-MEL-5 melanoma): > 100 µM
- TGI (HOP-92 NSCLC): > 72.6 µM
- TGI (NCI-H226 lung): > 100 µM
- TGI (DU-145 prostate): > 100 µM
- TGI (OVCAR-3 ovarian): > 100 µM
- TGI (MDA-MB-435): > 100 µM

Compound: COc1ccc2nc3ccc(OC)cc3c(SCCO)c2c1
- TGI (MOLT-4 leukemia): > 30.3 µM
- TGI (CAKI-1 renal): > 100 µM
- TGI (CCRF-CEM leukemia): > 31.1 µM
- TGI (NCI-H23 lung): > 100 µM
- TGI (SK-MEL-5 melanoma): > 100 µM
- TGI (HOP-92 NSCLC): > 100 µM
- TGI (NCI-H226 lung): > 100 µM
- TGI (DU-145 prostate): 37.1 µM
- TGI (OVCAR-3 ovarian): > 100 µM
- TGI (MDA-MB-435): > 100 µM

— PubChem BioAssay (NCI)
